In PubChem BioAssay (NCI):
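Five compound concentrations were applied to cells in 96-well plates for 48 hours; endpoints were derived by simple linear interpolation of the resulting dose-response curve. Definition used: TGI = concentration required for complete inhibition of growth.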

Legend:
Test in all cases: growth of human tumour cells (NCI), 48 h
MDA-MB-435 = test system: MDA-MB-435
A498 renal = test system: A498 renal
OVCAR-4 ovarian = test system: OVCAR-4 ovarian
T-47D breast = test system: T-47D breast
UACC-62 melanoma = test system: UACC-62 melanoma
MDA-MB-231 breast = test system: MDA-MB-231 breast
MCF7 breast = test system: MCF7 breast
OVCAR-3 ovarian = test system: OVCAR-3 ovarian
HCT-15 colon = test system: HCT-15 colon
TK-10 renal = test system: TK-10 renal
U251 CNS = test system: U251 CNS
UACC-257 melanoma = test system: UACC-257 melanoma
SNB-19 CNS = test system: SNB-19 CNS
HOP-62 NSCLC = test system: HOP-62 NSCLC
786-0 renal = test system: 786-0 renal
DU-145 prostate = test system: DU-145 prostate
SW-620 colon = test system: SW-620 colon
RXF 393 renal = test system: RXF 393 renal
SF-268 CNS = test system: SF-268 CNS
SF-295 CNS = test system: SF-295 CNS
KM12 colon = test system: KM12 colon
SN12C renal = test system: SN12C renal
CAKI-1 renal = test system: CAKI-1 renal
ACHN renal = test system: ACHN renal
HCT-116 colon = test system: HCT-116 colon
HCC-2998 colon = test system: HCC-2998 colon
M14 melanoma = test system: M14 melanoma
UO-31 renal = test system: UO-31 renal
SR leukemia = test system: SR leukemia
HS 578T breast = test system: HS 578T breast
HT29 colon = test system: HT29 colon
SK-MEL-28 melanoma = test system: SK-MEL-28 melanoma
NCI/ADR-RES ovarian = test system: NCI/ADR-RES ovarian
CCRF-CEM leukemia = test system: CCRF-CEM leukemia
OVCAR-5 ovarian = test system: OVCAR-5 ovarian
EKVX NSCLC = test system: EKVX NSCLC
RPMI-8226 leukemia = test system: RPMI-8226 leukemia
BT-549 breast = test system: BT-549 breast
HOP-92 NSCLC = test system: HOP-92 NSCLC
NCI-H522 lung = test system: NCI-H522 lung
A549 NSCLC = test system: A549 NSCLC
IGROV1 ovarian = test system: IGROV1 ovarian
SK-MEL-5 melanoma = test system: SK-MEL-5 melanoma
COLO 205 colon = test system: COLO 205 colon
OVCAR-8 ovarian = test system: OVCAR-8 ovarian
NCI-H226 lung = test system: NCI-H226 lung
MOLT-4 leukemia = test system: MOLT-4 leukemia
MALME-3M melanoma = test system: MALME-3M melanoma
SK-OV-3 ovarian = test system: SK-OV-3 ovarian
MDA-N = test system: MDA-N
NCI-H23 lung = test system: NCI-H23 lung
SK-MEL-2 melanoma = test system: SK-MEL-2 melanoma
SF-539 CNS = test system: SF-539 CNS
LOX IMVI melanoma = test system: LOX IMVI melanoma
NCI-H460 lung = test system: NCI-H460 lung
HL-60(TB) leukemia = test system: HL-60(TB) leukemia
K-562 leukemia = test system: K-562 leukemia
SNB-75 CNS = test system: SNB-75 CNS
PC-3 prostate = test system: PC-3 prostate

Work on `CC(C)C1=C2CCC3(C)C(CCC4C5C6OCC5(CCC6(C)C)CCC43C)C2(C)CC1` (stereo unspecified) yielded a TGI (MDA-MB-435) of 36.6 µM, a TGI (A498 renal) of 36.7 µM and a TGI (OVCAR-4 ovarian) of 77.5 µM. The TGI (T-47D breast) was 63 µM, the TGI (UACC-62 melanoma) was 41.3 µM and the TGI (MDA-MB-231 breast) was 37.3 µM. The TGI (MCF7 breast) was 47.7 µM, the TGI (OVCAR-3 ovarian) was 51 µM and the TGI (HCT-15 colon) was 40.7 µM. The TGI (TK-10 renal) was 31 µM, the TGI (U251 CNS) was 37 µM and the TGI (UACC-257 melanoma) was 36.1 µM. It also gave a TGI (SNB-19 CNS) of 98.6 µM, a TGI (HOP-62 NSCLC) of 38.9 µM and a TGI (786-0 renal) of 33.7 µM. The TGI (DU-145 prostate) was 37.5 µM, the TGI (SW-620 colon) was 50.8 µM and the TGI (RXF 393 renal) was 48.8 µM. It also gave a TGI (SF-268 CNS) of 69.9 µM, a TGI (SF-295 CNS) of 34.5 µM and a TGI (KM12 colon) of 35.2 µM. It also gave a TGI (SN12C renal) of 29.9 µM, a TGI (CAKI-1 renal) of 38.3 µM and a TGI (ACHN renal) of 35.9 µM. The TGI (HCT-116 colon) was 34.4 µM, the TGI (HCC-2998 colon) was 33.7 µM and the TGI (M14 melanoma) was 41.6 µM. For the same compound, the TGI (UO-31 renal) was 33.8 µM, the TGI (SR leukemia) was 30.6 µM and the TGI (HS 578T breast) was 51.3 µM. For the same compound, the TGI (HT29 colon) was 37 µM, the TGI (SK-MEL-28 melanoma) was 32.8 µM and the TGI (NCI/ADR-RES ovarian) was 39.6 µM. It also gave a TGI (CCRF-CEM leukemia) of 31.9 µM, a TGI (OVCAR-5 ovarian) of over 100 µM and a TGI (EKVX NSCLC) of 39.2 µM. It also gave a TGI (RPMI-8226 leukemia) of 42.9 µM, a TGI (BT-549 breast) of 52.2 µM and a TGI (HOP-92 NSCLC) of 40.8 µM. It also gave a TGI (NCI-H522 lung) of 36.5 µM, a TGI (A549 NSCLC) of 43.8 µM and a TGI (IGROV1 ovarian) of 29.2 µM. It also gave a TGI (SK-MEL-5 melanoma) of 50.2 µM, a TGI (COLO 205 colon) of 37.3 µM and a TGI (OVCAR-8 ovarian) of 34.4 µM. For the same compound, the TGI (NCI-H226 lung) was over 100 µM, the TGI (MOLT-4 leukemia) was 34.6 µM and the TGI (MALME-3M melanoma) was 38.6 µM. The TGI (SK-OV-3 ovarian) was over 100 µM, the TGI (MDA-N) was 30.2 µM and the TGI (NCI-H23 lung) was 54.5 µM. It also gave a TGI (SK-MEL-2 melanoma) of 81.7 µM, a TGI (SF-539 CNS) of 32.9 µM and a TGI (LOX IMVI melanoma) of 28.7 µM. It also gave a TGI (NCI-H460 lung) of 31.8 µM and a TGI (HL-60(TB) leukemia) of 27.9 µM.

Compound `O=C(O)CSC(NC(=O)C(C(F)(F)F)C(F)(F)F)(C(F)(F)F)C(F)(F)F` has a TGI (MDA-MB-435) of over 100 µM, a TGI (A498 renal) of over 100 µM and a TGI (T-47D breast) of over 100 µM. For the same compound, the TGI (HCT-15 colon) was over 100 µM, the TGI (TK-10 renal) was over 100 µM and the TGI (U251 CNS) was over 100 µM. The TGI (UACC-257 melanoma) was over 100 µM, the TGI (SNB-19 CNS) was over 100 µM and the TGI (786-0 renal) was over 100 µM. It also gave a TGI (SW-620 colon) of over 100 µM, a TGI (RXF 393 renal) of over 100 µM and a TGI (SF-268 CNS) of over 100 µM. For the same compound, the TGI (K-562 leukemia) was over 100 µM, the TGI (SN12C renal) was over 100 µM and the TGI (CAKI-1 renal) was over 100 µM. The TGI (SNB-75 CNS) was over 100 µM, the TGI (ACHN renal) was over 100 µM and the TGI (HCT-116 colon) was over 100 µM. The TGI (HCC-2998 colon) was over 100 µM, the TGI (M14 melanoma) was over 100 µM and the TGI (UO-31 renal) was over 100 µM. It also gave a TGI (SR leukemia) of over 100 µM, a TGI (HS 578T breast) of over 100 µM and a TGI (HT29 colon) of over 100 µM. The TGI (SK-MEL-28 melanoma) was over 100 µM, the TGI (NCI/ADR-RES ovarian) was over 100 µM and the TGI (CCRF-CEM leukemia) was over 100 µM. For the same compound, the TGI (OVCAR-5 ovarian) was over 100 µM, the TGI (EKVX NSCLC) was over 100 µM and the TGI (RPMI-8226 leukemia) was over 100 µM. For the same compound, the TGI (BT-549 breast) was over 100 µM, the TGI (A549 NSCLC) was over 100 µM and the TGI (IGROV1 ovarian) was over 100 µM. The TGI (SK-MEL-5 melanoma) was over 100 µM, the TGI (COLO 205 colon) was over 100 µM and the TGI (OVCAR-8 ovarian) was 83.3 µM. The TGI (MOLT-4 leukemia) was over 100 µM, the TGI (SK-OV-3 ovarian) was over 100 µM and the TGI (PC-3 prostate) was over 100 µM. It also gave a TGI (MDA-N) of over 100 µM, a TGI (NCI-H23 lung) of over 100 µM and a TGI (SK-MEL-2 melanoma) of over 100 µM. It also gave a TGI (SF-539 CNS) of over 100 µM, a TGI (LOX IMVI melanoma) of over 100 µM and a TGI (HL-60(TB) leukemia) of over 100 µM.
